Data reported in patent US8153809B2, “Dihydropyridone ureas as P2X7 modulators” (Roche Palo Alto LLC, priority 2008, dated 2012).

Target: T1, P2X7 (UniProt Q99572)
T1 sequence (Q99572 1-595): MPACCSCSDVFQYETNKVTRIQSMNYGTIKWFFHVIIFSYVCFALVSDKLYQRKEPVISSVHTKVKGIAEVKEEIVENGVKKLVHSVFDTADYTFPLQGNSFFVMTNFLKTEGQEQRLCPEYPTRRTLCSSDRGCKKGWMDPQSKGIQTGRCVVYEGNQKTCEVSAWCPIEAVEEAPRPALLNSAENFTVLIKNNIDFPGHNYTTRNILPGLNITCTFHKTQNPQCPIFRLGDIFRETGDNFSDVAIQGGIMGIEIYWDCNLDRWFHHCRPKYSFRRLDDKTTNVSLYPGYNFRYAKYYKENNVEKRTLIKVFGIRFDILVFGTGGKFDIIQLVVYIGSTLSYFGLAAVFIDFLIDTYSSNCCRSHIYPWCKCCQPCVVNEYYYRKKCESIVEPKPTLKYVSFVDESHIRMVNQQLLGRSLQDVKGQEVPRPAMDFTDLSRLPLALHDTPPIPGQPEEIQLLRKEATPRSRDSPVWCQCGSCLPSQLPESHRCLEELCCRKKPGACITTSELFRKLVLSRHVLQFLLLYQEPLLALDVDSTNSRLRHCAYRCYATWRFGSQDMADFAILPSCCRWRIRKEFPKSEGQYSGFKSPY
Assay: pIC50 values for P2X7 (Table 1)
Format: cell-based
Summary of the method: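 Fluo-3-loaded 1321N1 cells expressing human P2X7 or HEK293 cells expressing rat P2X7, preincubated 20 min at room temperature with antagonist in HBSS/Hepes/probenecid buffer with 2 mM CaCl2. BzATP agonist at 100 μM final (human) or 5 μM final (rat); fluorescence read 5 min, peak normalized to 5 μM ionomycin response.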

| pIC50 | SMILES |
| --- | --- |
| 6.83 | COc1cc(NC(=O)N2C=CC(=O)C[C@H]2c2cccc(F)c2)ccc1F [Compound 73, (S)-2-(3-Fluoro-phenyl)-4-oxo-3,4-dihydro-2H-pyridine-1-carboxylic acid (4-fluoro-3-methoxy-phenyl)-amide] |
| 7.2425 | COc1ccc(NC(=O)N2C=CC(=O)C[C@H]2c2ccc(F)cc2)cc1OC [Compound 34, (S)-2-(4-Fluoro-phenyl)-4-oxo-3,4-dihydro-2H-pyridine-1-carboxylic acid (3,4-dimethoxy-phenyl)-amide] |
| 6.76 | COc1cc(NC(=O)N2C=CC(=O)C[C@H]2c2ccc(F)cc2)ccc1F [Compound 76, (S)-2-(4-Fluoro-phenyl)-4-oxo-3,4-dihydro-2H-pyridine-1-carboxylic acid (4-fluoro-3-methoxy-phenyl)-amide] |
| 6.31 | COc1cccc(NC(=O)N2C=CC(=O)CC2c2ccc(F)cc2)c1 (stereo not drawn) [Compound 67, 2-(4-Fluoro-phenyl)-4-oxo-3,4-dihydro-2H-pyridine-1-carboxylic acid (3-methoxy-phenyl)-amide] |
| 6.215 | Cc1c(CC(=O)OC(C)(C)C)cccc1NC(=O)N1C=CC(=O)C[C@H]1c1ccc(F)cc1 [Compound 144, (3-{[(S)-2-(4-Fluoro-phenyl)-4-oxo-3,4-dihydro-2H-pyridine-1-carbonyl]amino}-2-methyl-phenyl)-acetic acid tert-butyl ester] |
| 7.675 | COc1cc(NC(=O)N2C=CC(=O)C[C@H]2c2cc(F)cc(F)c2)c(Br)cc1C [Compound 78, (S)-2-(3,5-Difluoro-phenyl)-4-oxo-3,4-dihydro-2H-pyridine-1-carboxylic acid (2-bromo-5-methoxy-4-methyl-phenyl)-amide] |
| 6.09 | COc1cc(NC(=O)N2C=CC(=O)C[C@H]2c2ccc(F)cc2)c(Br)cc1C(F)(F)F [Compound 8, (S)-2-(4-Fluoro-phenyl)-4-oxo-3,4-dihydro-2H-pyridine-1-carboxylic acid (2-bromo-5-methoxy-4-trifluoromethyl-phenyl)-amide] |
| 7.42 | CC(O)c1cc(NC(=O)N2C=CC(=O)C[C@H]2c2ccc(F)cc2)c(Br)cc1Cl (stereo partly drawn) [Compound 57, (S)-2-(4-Fluoro-phenyl)-4-oxo-3,4-dihydro-2H-pyridine-1-carboxylic acid [2-bromo-4-chloro-5-(1-hydroxy-ethyl)-phenyl]-amide] |
| 6.905 | Cc1n[nH]c2cc(NC(=O)N3C=CC(=O)C[C@H]3c3ccc(F)cc3)c(Br)cc12 [Compound 36, (S)-2-(4-Fluoro-phenyl)-4-oxo-3,4-dihydro-2H-pyridine-1-carboxylic acid (5-bromo-3-methyl-1H-indazol-6-yl)-amide] |
| 6.57 | Cc1ccc(NC(=O)N2C=CC(=O)C[C@H]2c2ccc(F)cc2)cc1 [Compound 137, (S)-2-(4-Fluoro-phenyl)-4-oxo-3,4-dihydro-2H-pyridine-1-carboxylic acid p-tolylamide] |
| 6.23 | COc1ccc(OC)c(NC(=O)N2C=CC(=O)CC2c2ccc(F)cc2)c1 (stereo not drawn) [Compound 65, 2-(4-Fluoro-phenyl)-4-oxo-3,4-dihydro-2H-pyridine-1-carboxylic acid (2,5-dimethoxy-phenyl)-amide] |
| 6.015 | O=C1C=CN(C(=O)Nc2cc(C(F)(F)F)c(Cl)cc2Br)[C@H](c2ccc(F)cc2)C1 [Compound 11, (S)-2-(4-Fluoro-phenyl)-4-oxo-3,4-dihydro-2H-pyridine-1-carboxylic acid (2-bromo-4-chloro-5-trifluoromethyl-phenyl)-amide] |
| 6.11 | O=C1C=CN(C(=O)Nc2cc(Cl)c(Cl)cc2Br)[C@H](c2ccc(F)cc2)C1 [Compound 9, (S)-2-(4-Fluoro-phenyl)-4-oxo-3,4-dihydro-2H-pyridine-1-carboxylic acid (2-bromo-4,5-dichloro-phenyl)-amide] |
| 5 | COc1cc(NC(=O)N2C=CC(=O)CC2c2ccc(F)cc2)cc(OC)c1OC (stereo not drawn) [Compound 80, 2-(4-Fluoro-phenyl)-4-oxo-3,4-dihydro-2H-pyridine-1-carboxylic acid (3,4,5-trimethoxy-phenyl)-amide] |
| 5.94 | CS(=O)(=O)c1cc(NC(=O)N2C=CC(=O)C[C@H]2c2ccc(F)cc2)c(Br)cc1Cl [Compound 15, (S)-2-(4-Fluoro-phenyl)-4-oxo-3,4-dihydro-2H-pyridine-1-carboxylic acid (2-bromo-4-chloro-5-methanesulfonyl-phenyl)-amide] |
| 5.78 | COc1cc(NC(=O)N2C=CC(=O)C[C@H]2c2ccc(F)cc2)c(Br)cc1C(N)=O [Compound 60, (S)-2-(4-Fluoro-phenyl)-4-oxo-3,4-dihydro-2H-pyridine-1-carboxylic acid (2-bromo-4-carbamoyl-5-methoxy-phenyl)-amide] |
| 6.737 | COc1cc(NC(=O)N2C=CC(=O)C[C@H]2c2ccc(F)cc2)ccc1C [Compound 45, (S)-2-(4-Fluoro-phenyl)-4-oxo-3,4-dihydro-2H-pyridine-1-carboxylic acid (3-methoxy-4-methyl-phenyl)-amide] |
| 6.38 | CS(=O)(=O)CCCOc1cc(NC(=O)N2C=CC(=O)C[C@H]2c2ccc(F)cc2)c(Br)cc1Cl [Compound 54, (S)-2-(4-Fluoro-phenyl)-4-oxo-3,4-dihydro-2H-pyridine-1-carboxylic acid [2-bromo-4-chloro-5-(3-methanesulfonyl-propoxy)-phenyl]-amide] |
| 6.43 | O=C1C=CN(C(=O)Nc2cc(F)c(F)cc2Br)C(c2ccc(F)cc2)C1 (stereo not drawn) [Compound 157, 2-(4-Fluoro-phenyl)-4-oxo-3,4-dihydro-2H-pyridine-1-carboxylic acid (2-bromo-4,5-difluoro-phenyl)-amide] |
| 5.995 | Cc1cc(Cl)c(CNC(=O)OC(C)(C)C)cc1NC(=O)N1C=CC(=O)C[C@H]1c1ccc(F)cc1 [Compound 122, (2-Chloro-5-{[(S)-2-(4-fluoro-phenyl)-4-oxo-3,4-dihydro-2H-pyridine-1-carbonyl]-amino}-4-methyl-benzyl)-carbamic acid tert-butyl ester] |
| 6.623 | C[S@@+]([O-])c1cc(NC(=O)N2C=CC(=O)C[C@H]2c2ccc(F)cc2)c(Br)cc1Cl [Compound 16, (S)-2-(4-Fluoro-phenyl)-4-oxo-3,4-dihydro-2H-pyridine-1-carboxylic acid [2-bromo-4-chloro-5-((R)-methanesulfinyl)-phenyl]-amide] |
| 6.535 | Cc1nn(C)c2cc(NC(=O)N3C=CC(=O)C[C@H]3c3ccc(F)cc3)ccc12 [Compound 145, (S)-2-(4-Fluoro-phenyl)-4-oxo-3,4-dihydro-2H-pyridine-1-carboxylic acid (1,3-dimethyl-1H-indazol-6-yl)-amide] |
| 6.365 | O=C1C=CN(C(=O)Nc2cc3c(cc2Br)OC(F)(F)O3)[C@H](c2ccc(F)cc2)C1 [Compound 61, (S)-2-(4-Fluoro-phenyl)-4-oxo-3,4-dihydro-2H-pyridine-1-carboxylic acid (6-bromo-2,2-difluoro-benzo[1,3]dioxol-5-yl)-amide] |
| 7.195 | COc1cc(NC(=O)N2C=CC(=O)C[C@H]2c2ccc(F)cc2)c(F)cc1Cl [Compound 35, (S)-2-(4-Fluoro-phenyl)-4-oxo-3,4-dihydro-2H-pyridine-1-carboxylic acid (4-chloro-2-fluoro-5-methoxy-phenyl)-amide] |
| 6.74 | COc1cc(NC(=O)N2C=CC(=O)C[C@H]2c2ccc(F)cc2)c(Br)cc1C#N [Compound 63, (S)-2-(4-Fluoro-phenyl)-4-oxo-3,4-dihydro-2H-pyridine-1-carboxylic acid (2-bromo-4-cyano-5-methoxy-phenyl)-amide] |
| 7.875 | COc1ccc(Br)c(NC(=O)N2C=CC(=O)C[C@H]2c2ccc(F)cc2)c1 [Compound 96, (S)-2-(4-Fluoro-phenyl)-4-oxo-3,4-dihydro-2H-pyridine-1-carboxylic acid (2-bromo-5-methoxy-phenyl)-amide] |
| 7.74 | Cc1cc(Cl)c(OCCCO)cc1NC(=O)N1C=CC(=O)C[C@H]1c1ccc(F)cc1 [Compound 114, (S)-2-(4-Fluoro-phenyl)-4-oxo-3,4-dihydro-2H-pyridine-1-carboxylic acid [4-chloro-5-(3-hydroxy-propoxy)-2-methyl-phenyl]-amide] |
| 8.06 | Cc1cc(Cl)c(CCO)cc1NC(=O)N1C=CC(=O)C[C@H]1c1ccc(F)cc1 [Compound 133, (S)-2-(4-Fluoro-phenyl)-4-oxo-3,4-dihydro-2H-pyridine-1-carboxylic acid [4-chloro-5-(2-hydroxy-ethyl)-2-methyl-phenyl]-amide] |
| 5.075 | COc1cc(Br)c(CNC(=O)N2C=CC(=O)CC2c2ccc(F)cc2)cc1OC (stereo not drawn) [Compound 75, 2-(4-Fluoro-phenyl)-4-oxo-3,4-dihydro-2H-pyridine-1-carboxylic acid 2-bromo-4,5-dimethoxy-benzylamide] |
| 7.45 | COc1ccc(NC(=O)N2C=CC(=O)C[C@H]2c2ccc(F)cc2)c(Br)c1 [Compound 89, (S)-2-(4-Fluoro-phenyl)-4-oxo-3,4-dihydro-2H-pyridine-1-carboxylic acid (2-bromo-4-methoxy-phenyl)-amide] |
